In patent US20230348459A1, “PYRROLIDINE COMPOUND AND USE THEREOF” (SIMCERE PHARMACEUTICAL CO., LTD., priority 2020, published 2023):

Tests used:
[1] = target: estrogen receptors in MCF7 cells (Homo sapiens (Human), UniProt P03372); assay: Degradation of estrogen receptors in MCF7 cells (in-cell western); assay type: cell-based; conditions: for DC50: 24 hours treatment, read-out: ER level DC50; for Dmax: 24 hours, 0.1 µM fulvestrant = 100% degradation control, read-out: Maximum degradation rate
Procedure: The purpose of the experiment is to determine the degradation activity of the compounds of the present invention on endogenously expressed estrogen receptors in MCF7 cells, and to evaluate the activity of the compounds according to DC50 and maximum degradation efficiency.
MCF7 cells (ATCC, HTB-22) were cultured in DMEM (Gibco, 11995-065) complete medium containing 10% fetal bovine serum. On the first day of the experiment, MCF7 cells were inoculated in a 384-well plate at a density of 3000 cells/well using the complete medium, and cultured in a 37° C., 5% CO2 cell incubator. The compounds to be tested were dissolved in DMSO with a stock concentration of 10 mM, the solution was diluted with Echo 550 (Labcyte Inc.) and added to the cell culture plate. Each compound with the starting concentration for treatment of 100 nM was subjected to 3-fold gradient dilution with 9 concentration points. A blank control containing 0.5% DMSO was set, and double replicate wells as controls were set at each concentration point. The culture was cultured in a 37° C., 5% CO2 cell incubator for 24 hours. Paraformaldehyde was added to the cell culture medium in each cell culture well, and the final concentration of paraformaldehyde was about 3.7% to fix the cells. After the mixture was reacted for 30 minutes, the supernatant was discarded, and 50 µL of PBS was added to each well for washing once. The cells were treated with PBS containing 0.5% v/v Tween-20 for 30 minutes, and washed with PBS once. A blocking solution (PBS containing 5% BSA, 0.05% Tween-20) was added, and the mixture was incubated at room temperature for 1 hour. The blocking solution was removed, a mixture solution of primary antibodies (anti-ER mAb, Estrogen Receptor α (D8H8) Rabbit mAb, GST, # 8644S, 1 : 1000 dilution; anti-GAPDH mAb, GAPDH(D4C6R) Mouse mAb, GST, #97166S, 1 : 2000 dilution) was added, and the mixture was incubated at room temperature for 3 hours. The culture was washed with PBST (PBS containing 0.05% Tween-20) 3 times. Secondary antibodies for detection (800CW-goat anti-rabbit IgG, LI-COR, P/N: 926-32211, 1 : 1000 dilution; 680RD-goat anti-mouse IgG, LI-COR, #925-68070, 1 : 1000 dilution) were added, and the mixture was incubated at room temperature and in the dark for 45 minutes. After washing with PBST 3 times, the fluorescence signal of each well was read using Odyssey CLx, and the value of Chanel 800 (ER)/Chanel 680 (GAPDH) was calculated. The wells treated with 0.1 µM fulvestrant were used as the 100% degradation control, and the degradation rate at each concentration point was calculated. The data were analyzed and processed by XlLfit, and the degradation activity DC50 and the maximum degradation rate Imax of each compound were calculated.

[2] = Plasma protein binding rate, equilibrium dialysis, mouse plasma; assay type: in vitro ADME; conditions: pH 7.4, CD-1 mouse plasma, 6 hours dialysis
Procedure: The protein binding rate of the compounds of the present invention in the plasma of five species (human, monkey, dog, rat and mouse) was determined by the following test method.
• 1. Human plasma (BioIVT), beagle dog plasma (BioIVT), SD rat plasma (BioIVT), CD-1 mouse plasma (BioIVT); • 2. 96-well equilibrium dialysis plate (HTDialysis LLC, Gales Ferry, CT, HTD96B), equilibrium dialysis membrane (MWCO 12-14 K, #1101); • 3. Positive control compound warfarin; • 4. ABI QTrap 5500 liquid chromatography-mass spectrometry.
1. Preparation of a buffer with a concentration of 100 mM sodium phosphate and 150 mM NaCl: an alkaline solution with a concentration of 14.2 g/L Na2HPO4 and 8.77 g/L NaCl was prepared with ultrapure water, and an acidic solution with a concentration of 12.0 g/L NaH2PO4 and 8.77 g/L NaCl was prepared with ultrapure water. The alkaline solution was titrated with the acidic solution to pH 7.4 to prepare a buffer with a concentration of 100 mM sodium phosphate and 150 mM NaCl.
2. Preparation of dialysis membrane: the dialysis membrane was soaked in ultrapure water for 60 minutes to separate the membrane into two pieces, then soaked in 20% ethanol for 20 minutes, and finally soaked in the buffer used for dialysis for 20 minutes.
3. Preparation of plasma: the frozen plasma was quickly thawed at room temperature, then the plasma was centrifuged at 3,220 g at 4° C. for 10 min to remove clots, and the supernatant was collected into a new centrifuge tube. The pH of the plasma was measured and recorded, and the plasma with pH of 7-8 was used.
3. Preparation of compound-containing plasma samples: 10 mM stock solution of compounds of the present invention or positive control compounds were diluted with DMSO to obtain 200 µM working solution. […]
The peak areas of the compounds on the buffer side and the plasma side were determined. […]
All the data was calculated by the Microsoft Excel software. The plasma protein binding rate values of the compounds of the present invention were calculated.

estrogen receptors in MCF7 cells, sequence (P03372 whole entry): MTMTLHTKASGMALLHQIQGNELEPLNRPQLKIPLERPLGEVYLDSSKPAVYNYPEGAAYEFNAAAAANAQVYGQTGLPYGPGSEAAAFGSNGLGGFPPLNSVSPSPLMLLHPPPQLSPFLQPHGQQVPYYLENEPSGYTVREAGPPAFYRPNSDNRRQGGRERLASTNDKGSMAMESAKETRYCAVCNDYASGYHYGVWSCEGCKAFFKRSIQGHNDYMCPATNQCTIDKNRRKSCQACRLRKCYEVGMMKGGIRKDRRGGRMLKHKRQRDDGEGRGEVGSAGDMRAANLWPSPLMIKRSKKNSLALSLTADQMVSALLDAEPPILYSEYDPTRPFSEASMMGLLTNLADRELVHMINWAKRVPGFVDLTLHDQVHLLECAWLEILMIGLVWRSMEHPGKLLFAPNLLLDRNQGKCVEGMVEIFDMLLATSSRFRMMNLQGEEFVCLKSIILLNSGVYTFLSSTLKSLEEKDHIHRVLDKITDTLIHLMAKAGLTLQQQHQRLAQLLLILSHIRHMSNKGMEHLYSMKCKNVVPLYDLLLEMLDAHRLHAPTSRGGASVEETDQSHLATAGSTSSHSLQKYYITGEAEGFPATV

Structure (SMILES)	DC50 [1] [nM]	Dmax [1] [%]	fraction unbound at 6 h, 1 µM [2]
C[C@@H]1Cc2c([nH]c3ccccc23)C(c2c(F)cc(N[C@H]3CCN(CCCF)C3)cc2F)N1CC(F)(F)F (stereo in doubt) [Example 4, (S)-N-(3,5-difluoro-4-((1S,3R)-3-methyl-2-(2,2,2-trifluoroethyl)-2,3,4,9-tetrahydro-1H-pyridino[3,4-b]indol-1-yl)phenyl)-1-(3-fluoropropyl)pyrrolidin-3-amine]	0.04	99	0.002
C[C@@H]1Cc2c([nH]c3ccccc23)C(c2c(F)cc(N[C@H]3CCN(CCCF)C3)cc2F)N1CC(F)(F)CO (stereo in doubt) [Example 7, 3-((1S,3R)-1-(2,6-difluoro-4-(((S)-1-(3-fluoropropyl)pyrrolidin-3-yl)amino)phenyl)-3-methyl-3,4-dihydro-1H-pyridino [3,4-b]indole-2(9H)-yl)-2,2-difluoropropane-1-ol]	0.06		0.012
C[C@@H]1Cc2c([nH]c3ccccc23)[C@@H](c2ccc(N[C@H]3CCN(CCCF)C3)cn2)N1CC(F)(F)F [Example 3, N-((S)-1-(3-fluoropropyl)pyrrolidin-3-yl)-6-((1S,3R)-3-methyl-2-(2,2,2-trifluoroethyl)-2,3,4,9-tetrahydro-1H-pyridino[3,4-b]indol-1-yl)pyridine-3-amine]	0.15	104	0.019
